The test system of the test is CEM cells HIV-1 protection, formazan growth assay. The experiment in a line: NCI AIDS Antiviral Assay. To be noted: for IC50: measured here: growth of uninfected CEM cells. The method in brief: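 Human CEM cells, uninfected and HIV-1-infected, exposed to five drug concentrations; growth measured by soluble formazan assay and scored as percent protection from infection, with protecting compounds retested.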

From PubChem BioAssay AID179 (DTP/NCI, 2004) come the findings set out here.

Activity calls are given as the source filed them.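 How the source made its calls: active means compounds giving half or more protection of infected cells from virus-caused growth loss, again on retest; inactive means the rest.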

A word on the EC50: it is the midpoint of the concentration-response curve. The IC50 is the concentration that gives 50% inhibition. A lower IC50 goes with inhibition by little substance. For `CCOc1ccccc1NC(=O)/C=C1\NC(=O)CS1`, the EC50 was greater than 158 µM and the IC50 is 129 µM. With `CC1(C)O[C@@H](CC/C=C/CO)[C@H](CC/C=C/CO)O1`, the outcome was inactive. As to `c1ccc(-c2cn3nc(N4CCOCC4)sc3n2)cc1`, the EC50 was greater than 200 µM and the IC50 is greater than 200 µM. Take `C=CCSc1n[nH]c(=S)c2nc[nH]c12`: the EC50 is greater than 200 µM and the IC50 was found to be 129 µM. In the case of `COc1ccc2c(c1)C1c3ccccc3CCN1CCC2` (stereo not drawn), the EC50 was greater than 200 µM and the IC50 was determined as 79.4 µM. As for `Cn1c(=O)c2sc3cc4c(cc3c2c2ccccc21)sc1c(=O)n(C)c2ccccc2c14`, the EC50 is greater than 100 µM and the IC50 worked out at 61.7 µM. Regarding `O=c1[nH]cnc2c1nnn2CCCCCCCCCCCCn1nnc2c(=O)[nH]cnc21`, the EC50 was greater than 200 µM and the IC50 turned out to be 24 µM. As to `O=C([O][Bi]([c]1ccccc1)[c]1ccccc1)C(F)(F)F`, the EC50 is greater than 20 µM and the IC50 is 15.1 µM. With `COc1ccc(C2Oc3ccc(O)cc3[C@@H]2C)cc1OC` (stereo partly drawn), the EC50 was greater than 174 µM and the IC50 was greater than 174 µM.

On to `CC1C(=O)CC2OC3CC(C)(Cl)C(Br)CC31C2(C)C` (stereo not drawn), for which the outcome was inactive. For the compound `CCOc1c(Cc2ccccc2)c(=O)nc2c(-c3ccccc3)cncn12`, the EC50 is greater than 200 µM and the IC50 is 42.7 µM. Turning to `CC(=O)OCC1OC(SC2=NC(=O)CS2)C(OC(C)=O)C(OC(C)=O)C1OC(C)=O` (stereo not drawn), the EC50 was greater than 200 µM, the outcome was inactive and the concentration for half-maximal inhibition (IC50) stood at 74.1 µM.

As for `COc1ccc(C23C(=O)c4ccccc4N2O[C@H]2C(=O)N(c4ccccc4)C(=O)[C@H]23)cc1` (stereo partly drawn), the EC50 is greater than 31.6 µM and the IC50 is greater than 31.6 µM. As for `CCOC(=O)C(C(=S)Nc1ccccc1)c1nn2c(=O)cc(C)nc2s1` (stereo not drawn), the EC50 was greater than 200 µM and the IC50 turned out to be 34.7 µM. For `CC(=O)C(=Cc1ccc(O)cc1)C(C)=O`, in that order: greater than 1230 µM and 75.9 µM.

As for `CN(CCO)c1cnn(CCO)c(=O)c1Cl`, the EC50 was greater than 200 µM and the IC50 was greater than 200 µM. Turning to `CN(C)C(=S)SN(C)C(=O)Nc1ccccc1`, the EC50 was greater than 200 µM and the IC50 worked out at 13.2 µM. Consider `COc1cc(C2C(C(=O)NCc3ccccc3)=C(C)NC(C)=C2C(=O)NCc2ccccc2)ccc1O`, for which the EC50 is greater than 72.4 µM and the IC50 turned out to be 49 µM. In the case of `COc1ccc(-c2[nH]c3ccccc3c2-c2ccc(OC)cc2)cc1`, the EC50 is greater than 200 µM and the IC50 was 12.9 µM. For `COc1ccc(N2C(=O)C3c4[nH]c5ccccc5c4C4CCC(C(C)C)CC4C3C2=O)cc1` (stereo not drawn), in that order: greater than 100 µM and 93.3 µM. In the case of `CC(C)(C)NC(=O)NC12CC3CC(CC(F)(C3)C1)C2`, the EC50 was greater than 26.9 µM and the IC50 was greater than 26.9 µM. With `O=S(Cc1ccccc1)/C(=C/NC(=S)Nc1cc(Cl)ccc1Cl)c1ccccc1` (stereo not drawn), the EC50 is greater than 200 µM and the IC50 is greater than 200 µM. For the compound `CCCCc1c2c(nc3c1CC/C(=C\c1ccc([N+](=O)[O-])cc1)C3=O)CCCC2`, the EC50 was greater than 6.92 µM and the concentration for half-maximal inhibition (IC50) turned out to be 1.32 µM. As for `CC1=CCCC2C(C1)C(=O)CC(C)C2(C)CC/C(=C/CO)CO` (stereo not drawn), the outcome was inactive.

Consider `CCOC(=O)/C(=N/Nc1ccc(C)cc1)N1C(=S)C=C(C)NN(C)C1=S`, for which the EC50 is greater than 200 µM and the half-inhibitory concentration (IC50) is greater than 200 µM.

`NC(=O)CNC(=O)c1ccccc1SC(=O)OCCCCCl` came in with a concentration giving a half-maximal response (EC50) of 26.3 µM and an IC50 greater than 200 µM.

In the case of `CC(=O)NC(=O)C(C(C)=O)c1ccccc1` (stereo not drawn), the EC50 was greater than 1150 µM and the IC50 is greater than 1150 µM. Turning to `N#Cc1cnc(N)nc1NCC1(CO)CC(CCc2ccccc2)C1` (stereo not drawn), the EC50 was greater than 200 µM and the 50% inhibitory concentration (IC50) was 7.24 µM.

In the case of `O=C(c1ccco1)N(C(=O)N1CCCCC1)c1ccccc1`, the EC50 was greater than 200 µM and the IC50 is greater than 200 µM. Consider `O=C(O)COc1ccc(Cl)cc1Cc1cc(Cl)ccc1OCC(=O)O`, for which the EC50 was greater than 200 µM and the IC50 came out at 89.1 µM.

Take `COc1cc2c(c(OC)c1OC)C(=O)CC2N` (stereo not drawn): the EC50 was greater than 200 µM and the IC50 is greater than 200 µM. Turning to `CCN=C(C#N)NCC`, the EC50 was greater than 708 µM and the IC50 was 257 µM. As to `CN1C(=O)/C(=c2\sc3nc4ccccc4n3c2=O)c2ccccc21`, the outcome was inactive. As for `CC1(C)C[C@H]2[C@H](O)C(CO)=C3CC(O)C3(C)[C@H]2C1` (stereo partly drawn), the EC50 was greater than 141 µM and the IC50 came out at 66.1 µM. For `NC(=S)N/N=C(/CC(=O)c1ccc([N+](=O)[O-])cc1)C(=O)Nc1ncc([N+](=O)[O-])s1`, in that order: greater than 83.2 µM and 81.3 µM. As to `Cc1ccc2c(c1)C1(OC(=O)c3ccccc31)c1ccc(F)cc1O2` (stereo not drawn), the EC50 was greater than 91.2 µM and the IC50 turned out to be 22.9 µM.

As for `NC(=O)NN=C1C[C@H]2CCCC[C@H]2C1`, the outcome was inactive. Same read-out and setting: in the case of `O=C1/C(=C/c2ccccc2)CN(C(=O)Oc2ccc(Cl)cc2)C/C1=C\c1ccccc1` it was “inactive”. In the case of `O=C1Nc2ccc([N+](=O)[O-])c3c(C(=O)O)ccc1c23`, the EC50 is greater than 200 µM and the IC50 stood at 141 µM. Consider `N#CC(N)(C(=O)CCC(=O)Nc1cccc(Cl)c1)c1ccc(Cl)cc1` (stereo not drawn), for which the EC50 is greater than 661 µM and the IC50 was greater than 661 µM. In the case of `COc1ccc(N2C(=O)C3c4[nH]c5ccc([N+](=O)[O-])cc5c4C4CCC(C(C)(C)C)CC4C3C2=O)cc1` (stereo not drawn), the EC50 is greater than 200 µM and the IC50 was 18.2 µM. `OCCNc1nnc(NCCO)c2[nH]cnc12`: the result was inactive. `C[C@H](NC(=O)c1ccccc1SC(=O)OCCCCCl)C(N)=O` had an EC50 of 20.9 µM and an IC50 greater than 200 µM. `Cc1cc(=O)[nH]c(NNC(C#N)c2ccco2)n1` (stereo not drawn): the EC50 is greater than 380 µM and the IC50 was greater than 380 µM.

Consider `O=C(NC1=NC2C=CC([N+](=O)[O-])=CC2S1)C(=O)Nn1c(=S)[nH]c2ccccc2c1=O` (stereo not drawn), for which the EC50 is greater than 81.3 µM and the IC50 worked out at 74.1 µM. For `O=C(CCSSCCC(=O)ON1C(=O)CCC1=O)ON1C(=O)CCC1=O`, in that order: greater than 200 µM and greater than 200 µM.

As to `CCCCCCOC(=O)c1[nH]c(=O)n(CCCCCC)c(=O)c1NC(=O)CNc1ccc2c(=O)c3ccccc3[nH]c2c1`, the EC50 was greater than 200 µM and the IC50 is 1 µM. On to `C[C@@H]1CCC(=O)C(C(=O)CC2CC(=O)NC2=O)C1` (stereo partly drawn), for which the EC50 is greater than 200 µM and the IC50 is greater than 200 µM. Turning to `CCOC(=O)C1=C(C)N(NC(=O)c2ccccc2)C2(O)CCCC12C(=O)OCC` (stereo not drawn), the EC50 was greater than 447 µM and the IC50 is 245 µM. Regarding `NC(N)=NCCCC(N=c1c2ccccc2n(O)c2ccccc12)C(=O)O` (stereo not drawn), the outcome was inactive. In the case of `COC(=O)[C@@H]1C=C[C@H](OC2OC(COC(C)=O)C(OC(C)=O)C(OC(C)=O)C2OC(C)=O)n2c(=O)c3ccccc3c(=O)n21` (stereo partly drawn), the EC50 is greater than 200 µM and the IC50 worked out at 10.7 µM. For `O=C1c2c(O)ccc(O)c2C(=O)c2c(NCCOCCO)ccc(NCCOCCO)c21`, in that order: greater than 200 µM and 3.55 µM. Take `O=C1NC(=S)N/C1=C\c1ccc(Br)s1`: the EC50 is greater than 200 µM and the IC50 is 112 µM. For `O=C1CC(c2cccc(Cl)c2)n2cccc21` (stereo not drawn), the EC50 is greater than 200 µM and the IC50 was 93.3 µM.

Regarding `O=C1CNc2cc(N3CCN(c4cccc(C(F)(F)F)c4)CC3)ccc2N1`, the EC50 was greater than 200 µM and the IC50 is 75.9 µM. As for `O=C1C2=Cc3ccccc3OC2(O)Oc2cc(O)cc(O)c21` (stereo not drawn), the EC50 is greater than 200 µM and the IC50 turned out to be 91.2 µM. Take `CC(=O)O/N=C/c1cc2c(cc1Br)OCO2`: the EC50 is greater than 18.2 µM and the half-inhibitory concentration (IC50) is greater than 18.2 µM. `Cc1ccc(NC(=O)c2cc3ccccc3c(N=Nc3cc(S(=O)(=O)O)ccc3O)c2O)c(C)c1`: the EC50 is 0.832 µM and the IC50 came to 4.27 µM. For the compound `C=C(C(=O)O)C1CC[C@@]2(C)CCC[C@@](C)(O)C2C1` (stereo partly drawn), the EC50 is greater than 200 µM and the IC50 is greater than 200 µM.

As for `N#C/C(=C\c1ccc(O)c(O)c1)C(=O)Nc1ccc(C(=O)O)cc1`, the EC50 is greater than 200 µM and the IC50 is 38.9 µM. As for `N#Cc1cccc(N2C(=O)C3C4C=CC(C3C2=O)C2C(=O)N(c3cccc(C#N)c3)C(=O)C42)c1` (stereo not drawn), the result was inactive. In the case of `COC(c1cccc(C(O)(C(F)(F)F)C(F)(F)F)c1)(C(F)(F)F)C(F)(F)F`, the result was inactive. Same read-out and setting: in the case of `COC(=O)[C@]1(C)C(OC)=CC(=O)C2C1[C@H]1CCC[C@@H]21` (stereo partly drawn) it was “inactive”.

As to `COc1c(Br)cc(C(=O)c2cc(Br)c(OC)c(C(=O)O)c2)cc1C(=O)O`, the EC50 was greater than 1480 µM and the concentration for half-maximal inhibition (IC50) was greater than 1480 µM. With `NC1=NC2(COC(c3ccccc3)(c3ccccc3)c3ccccc3)OC(COC(c3ccccc3)(c3ccccc3)c3ccccc3)C(O)C2O1` (stereo not drawn), the EC50 is greater than 200 µM and the IC50 is 12 µM.

On to `CC(=O)Nc1ccc(/C=C/C(=O)c2sc(C(N)=S)nc2C)cc1`, for which the EC50 is greater than 75.9 µM and the IC50 was greater than 75.9 µM. As for `CC1CC2(S(=O)(=O)c3ccccc3)ON1CC2S(=O)(=O)c1ccccc1` (stereo not drawn), the outcome was inactive. `N#Cc1c(N)nc(N)nc1Nc1ccc(I)cc1`: the EC50 is greater than 200 µM and the IC50 is 23.4 µM. `O=C1NC(Nc2ccccc2)=NC(C(F)(F)F)(C(F)(F)F)N1`: the EC50 was greater than 200 µM and the IC50 came out at 36.3 µM. For `CCOC(=O)C1(C(=O)OCC)CSC1`, the EC50 was greater than 309 µM and the IC50 is greater than 309 µM.

Consider `COC1/C=C/OC2(C)Oc3c(C)c(O)c4c(O)c(c(C=NN5CCCCCCCCCCCCCCC5)c(O)c4c3C2=O)NC(=O)/C(C)=C/C=C/C(C)C(O)C(C)C(O)C(C)C(OC(C)=O)C1C` (stereo not drawn), for which the EC50 was greater than 200 µM and the IC50 worked out at 3.98 µM. Take `Cc1nc2ccc(F)cc2c2c1CCN2c1ccc(Cl)cc1`: the EC50 was greater than 100 µM and the IC50 was found to be 5.75 µM.
